One test concerns the target T1, Fn14-TWEAK binding (Homo sapiens, UniProt Q9NP84).
T1 construct: the human Fc fragment-tagged Fn14 extracellular domain (R&D Systems) was captured; purchased R&D Systems (Fn14-Fc); Peprotech (recombinant TWEAK)
T1 sequence (Q9NP84 28-80 limits assumed): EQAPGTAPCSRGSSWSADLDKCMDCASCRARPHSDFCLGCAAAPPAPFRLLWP
The test can be described thus: Double sandwich ELISA small molecule screening of TWEAK binding to captured Fn14-Fc. A digest of the protocol:
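Fn14-Fc (human Fc-tagged extracellular domain) captured on anti-human Fc wells; compounds at 25 μM (0.125% DMSO) preincubated 2 h at room temperature, then TWEAK added to 500 pg/mL final for 2 h. Bound TWEAK detected with biotinylated anti-TWEAK antibody, HRP-streptavidin and chemiluminescence; binding reduction calculated from a per-plate recombinant TWEAK standard curve.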

A further test has as its target T2, TWEAK (Homo sapiens, UniProt O43508).
T2 sequence (O43508 94-249 limits assumed): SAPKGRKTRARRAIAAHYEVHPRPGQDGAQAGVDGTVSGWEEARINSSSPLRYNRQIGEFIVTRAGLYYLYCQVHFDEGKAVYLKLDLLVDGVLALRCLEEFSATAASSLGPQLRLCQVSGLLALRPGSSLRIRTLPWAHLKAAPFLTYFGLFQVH
In words: Surface Plasmon Resonance assay, TWEAK sensor surface. The class given is binding. Particulars: SPR, 0 to 50 μM. On the procedure:
Surface Plasmon Resonance (SPR) Assay. The binding affinity of at least one of the compounds (e.g., L524-0366) to TWEAK and Fn14-Fx was determined using a BIAcore T100 optical biosensor (GE Healthcare) at 25 degrees Celsius at the Arizona Proteomics Consortium. Recombinant human TWEAK (20 μg/mL in 10 mM HEPES pH 7.4, 150 mM NaCl, 3 mM EDTA, 0.05% Tween 20) or recombinant human Fn14-Fc (20 μg/mL in 10 mM NaOAc pH 4.0) were covalently coupled to separate flow cells on a BIAcore CM5 sensor chip using standard amine coupling chemistry as per manufacturer's protocol. Final immobilization levels were 6000 Response Units (RU) for TWEAK and 13,000 RU for FN14-Fc. The first flow path of the chip was treated with the same coupling and blocking reagents without protein and was used as a reference for each binding cycle. Functionality of the TWEAK and the Fn14-Fc sensor surfaces were verified by injecting Fn14-Fc and TWEAK over them respectively. Serial dilutions of L524-0366 or cycloheximide (control) from 0 to 50 μM were made in running buffer (10 mM HEPES pH 7.4, 150 mM NaCl, 3 mM EDTA, 1% DMSO). […] Equilibrium dissociation constants for the small molecules were calculated by fitting the double reference subtracted data to Req=((CRmax)/(KD+C))+RI, where RI is the bulk refractive index contribution.

Molecules are shown by their SMILES. Read-outs that look alike come from different tables or passages of the source.

Turning to `O=C(c1cn(-c2cccc(Cl)c2)nn1)N1CCSCC1` [Compound L524-0366], the inhibition at 25 µM on Fn14-TWEAK binding (Table 4, second screening iteration, 25 μM, average of duplicate, read-out: % Reduction in TWEAK Binding, Average) stood at 16.9%; on Fn14-TWEAK binding (Table 4, second screening iteration, 25 μM, replicate 1, read-out: % Reduction in TWEAK Binding, Data 1), 18.8%; on Fn14-TWEAK binding (Table 4, second screening iteration, 25 μM, replicate 2, read-out: % Reduction in TWEAK Binding, Data 2), 14.9%; on Fn14-TWEAK binding (Table 5, 25 μM, average of duplicate, read-out: % Reduction in TWEAK Binding, Average) it was 16.9%; on Fn14-TWEAK binding (Table 5, 25 μM, replicate 1, read-out: % Reduction in TWEAK Binding, Data 1), 18.8%; at Fn14-TWEAK binding (Table 5, 25 μM, replicate 2, read-out: % Reduction in TWEAK Binding, Data 2) it was 14.9%. Also, the “binding to TWEAK” value at TWEAK is recorded as “not to the TWEAK surface”.
